Assay results from US20260262643A1, “HERBICIDAL BENZOXAZINES” (FMC CORPORATION, priority 2022, published 2026).

How the values were obtained:
soybean [1] = assay: Test C postemergence; type: in vivo, Glycine max; settings: 10 days, 0 to 100 scale (0 no effect, 100 complete control)
Method in brief: (§1)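 Seeds sown in loam soil–sand blend received a directed preemergence soil spray of test chemical in non-phytotoxic solvent with surfactant; postemergence plants (2–10 cm, one- to two-leaf stage) were sprayed with the same formulation. Greenhouse-held 10 days, then visually rated for injury versus untreated controls, 0 (no effect) to 100 (complete control).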

barnyardgrass [2] = assay: Test C postemergence; type: in vivo, Echinochloa crusgalli; settings: 10 days, 0 to 100 scale (0 no effect, 100 complete control)
Method in brief: as §1

corn [3] = assay: Test C postemergence; type: in vivo, Zea mays; settings: 10 days, 0 to 100 scale (0 no effect, 100 complete control)
Method in brief: as §1

blackgrass [4] = assay: Test C postemergence; type: in vivo, Alopecurus myosuroides; settings: 10 days, 0 to 100 scale (0 no effect, 100 complete control)
Method in brief: as §1

kochia [5] = assay: Test C postemergence; type: in vivo, Bassia scoparia; settings: 10 days, 0 to 100 scale (0 no effect, 100 complete control)
Method in brief: as §1

foxtail, giant [6] = assay: Test C preemergence; type: in vivo, Setaria faberi
Description: (§2) Seeds of plant species selected from barnyardgrass (Echinochloa crusgalli), blackgrass (Alopecurus myosuroides), corn (Zea mays), foxtail, giant (giant foxtail, Setaria faberi), green foxtail (Setaria viridis), goosegrass (Eleusine indica), kochia (Bassia scoparia), oat, wild (wild oat, Avena fatua), pigweed, palmer (palmer amaranth, palmer pigweed, Amaranthus palmeri), Pigweed, Redroot (redroot pigweed, Amaranthus retroflexus), ragweed (common ragweed, Ambrosia artemisiifolia), ryegrass, Italian ([…] ryegrass, Lolium multiflorum), soybean (Glycine max), and wheat (Triticum aestivum) were planted into a blend of loam soil and sand and treated preemergence with a directed soil spray using test chemicals formulated in a non-phytotoxic solvent mixture which included a surfactant. At the same time, plants selected from these crops and weed species and also galium (catchweed bedstraw, Galium aparine) and horseweed (Erigeron canadensis) were planted in pots containing the same blend of loam soil and sand and treated with postemergence applications of test chemicals formulated in the same manner. Plants ranged in height from 2 to 10 cm and were in the one- to two-leaf stage for the postemergence treatment. Treated plants and untreated controls were maintained in a greenhouse for 10 days, after which time all treated plants were compared to untreated controls and visually evaluated for injury. Plant response ratings, summarized in Table C, are based on a 0 to 100 scale where 0 is no effect and 100 is complete control. A dash (-) response means no test result.

oat, wild [7] = assay: Test C preemergence; type: in vivo, Avena fatua
Method in brief: as §1

soybean [8] = assay: Test C preemergence; type: in vivo, Glycine max
Method in brief: as §1

foxtail, giant [9] = assay: Test C postemergence; type: in vivo, Setaria faberi; settings: 10 days, 0 to 100 scale (0 no effect, 100 complete control)
Description: as §2

horseweed = assay: Test C postemergence; type: in vivo, Erigeron canadensis; settings: 10 days, 0 to 100 scale (0 no effect, 100 complete control)
Method in brief: as §1

barnyardgrass [10] = assay: Test C preemergence; type: in vivo, Echinochloa crusgalli
Method in brief: as §1

galium = assay: Test C postemergence; type: in vivo, Galium aparine; settings: 10 days, 0 to 100 scale (0 no effect, 100 complete control)
Method in brief: as §1

wheat [11] = assay: Test C postemergence; type: in vivo, Triticum aestivum; settings: 10 days, 0 to 100 scale (0 no effect, 100 complete control)
Method in brief: as §1

oat, wild [12] = assay: Test C postemergence; type: in vivo, Avena fatua; settings: 10 days, 0 to 100 scale (0 no effect, 100 complete control)
Method in brief: as §1

pigweed, palmer [13] = assay: Test C preemergence; type: in vivo, Amaranthus palmeri
Method in brief: as §1

pigweed, palmer [14] = assay: Test C postemergence; type: in vivo, Amaranthus palmeri; settings: 10 days, 0 to 100 scale (0 no effect, 100 complete control)
Method in brief: as §1

ducksalad = assay: Test D flooded paddy test; type: in vivo, Heteranthera limosa; settings: 250 g ai/ha, applied to paddy water, visual rating after 13 to 14 days, scale 0 to 100 (0 no effect, 100 complete control)
Method in brief: (§3)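 Compounds go straight into paddy water over 2-leaf plants in pots flooded to 3 cm. Greenhouse holding lasts 13 to 14 days. Injury is scored by eye against controls from 0 (none) to 100 (complete control).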

kochia [15] = assay: Test C preemergence; type: in vivo, Bassia scoparia
Method in brief: as §1

barnyardgrass [16] = assay: Test D flooded paddy test; type: in vivo, Echinochloa crus-galli; settings: 250 g ai/ha, applied to paddy water, visual rating after 13 to 14 days, scale 0 to 100 (0 no effect, 100 complete control)
Method in brief: as §3

rice = assay: Test D flooded paddy test; type: in vivo, Oryza sativa; settings: 250 g ai/ha, applied to paddy water, visual rating after 13 to 14 days, scale 0 to 100 (0 no effect, 100 complete control)
Method in brief: as §3

ragweed [17] = assay: Test C preemergence; type: in vivo, Ambrosia artemisiifolia
Method in brief: as §1

ryegrass, Italian [18] = assay: Test C preemergence; type: in vivo, Lolium multiflorum
Method in brief: as §1

ragweed [19] = assay: Test C postemergence; type: in vivo, Ambrosia artemisiifolia; settings: 10 days, 0 to 100 scale (0 no effect, 100 complete control)
Method in brief: as §1

corn [20] = assay: Test C preemergence; type: in vivo, Zea mays
Method in brief: as §1

wheat [21] = assay: Test C preemergence; type: in vivo, Triticum aestivum
Method in brief: as §1

ryegrass, Italian [22] = assay: Test C postemergence; type: in vivo, Lolium multiflorum; settings: 10 days, 0 to 100 scale (0 no effect, 100 complete control)
Method in brief: as §1

sedge, umbrella = assay: Test D flooded paddy test; type: in vivo, Cyperus difformis; settings: 250 g ai/ha, applied to paddy water, visual rating after 13 to 14 days, scale 0 to 100 (0 no effect, 100 complete control)
Method in brief: as §3

blackgrass [23] = assay: Test C preemergence; type: in vivo, Alopecurus myosuroides
Method in brief: as §1

[24] = 500 g ai/ha, preemergence, 0 to 100 scale (0 no effect, 100 complete control)
[25] = Preemergence, 125 g ai/ha, 0 to 100 scale, 0 no effect, 100 complete control

SMILES: CC(C)c1ncn(-c2cc(C(=O)N3CC(C(F)(F)F)Oc4c(Cl)cccc43)ccn2)n1 (racemic) [Compound 329]
- Plant response rating, Soybean (soybean [1]; 500 g ai/ha, postemergence): 100
- Plant response rating, Soybean (soybean [1]; Postemergence, 125 g ai/ha): 100
- Plant response rating, Barnyardgrass (barnyardgrass [2]; 500 g ai/ha, postemergence): 60
- Plant response rating, Barnyardgrass (barnyardgrass [2]; Postemergence, 125 g ai/ha): 10
- Plant response rating, Corn (corn [3]; 500 g ai/ha, postemergence): 80
- Plant response rating, Corn (corn [3]; Postemergence, 125 g ai/ha): 30
- Plant response rating, Blackgrass (blackgrass [4]; 500 g ai/ha, postemergence): 90
- Plant response rating, Blackgrass (blackgrass [4]; Postemergence, 125 g ai/ha): 50
- Plant response rating, Kochia (kochia [5]; 500 g ai/ha, postemergence): 90
- Plant response rating, Kochia (kochia [5]; Postemergence, 125 g ai/ha): 70
- Foxtail, Giant plant response rating (foxtail, giant [6]; [24]): 100
- Plant response rating, Foxtail, Giant (foxtail, giant [6]; [25]): 100
- Oat, Wild plant response rating (oat, wild [7]; [24]): 80
- Plant response rating, Oat, Wild (oat, wild [7]; [25]): 30
- Soybean plant response rating (soybean [8]; [24]): 80
- Plant response rating, Soybean (soybean [8]; [25]): 0
- Plant response rating, Foxtail, Giant (foxtail, giant [9]; 500 g ai/ha, postemergence): 90
- Plant response rating, Foxtail, Giant (foxtail, giant [9]; Postemergence, 125 g ai/ha): 50
- Plant response rating, Horseweed (horseweed; 500 g ai/ha, postemergence): 0
- Plant response rating, Horseweed (horseweed; Postemergence, 125 g ai/ha): 0
- Barnyardgrass plant response rating (barnyardgrass [10]; [24]): 100
- Plant response rating, Barnyardgrass (barnyardgrass [10]; [25]): 70
- Plant response rating, Galium (galium; 500 g ai/ha, postemergence): 100
- Plant response rating, Galium (galium; Postemergence, 125 g ai/ha): 60
- Plant response rating, Wheat (wheat [11]; 500 g ai/ha, postemergence): 50
- Plant response rating, Wheat (wheat [11]; Postemergence, 125 g ai/ha): 20
- Plant response rating, Oat, Wild (oat, wild [12]; 500 g ai/ha, postemergence): 80
- Plant response rating, Oat, Wild (oat, wild [12]; Postemergence, 125 g ai/ha): 30
- Pigweed, Palmer plant response rating (pigweed, palmer [13]; [24]): 100
- Plant response rating, Pigweed, Palmer (pigweed, palmer [13]; [25]): 90
- Plant response rating, Pigweed, Palmer (pigweed, palmer [14]; 500 g ai/ha, postemergence): 80
- Plant response rating, Pigweed, Palmer (pigweed, palmer [14]; Postemergence, 125 g ai/ha): 20
- Plant response rating, Ducksalad (Flood) (ducksalad): 0
- Kochia plant response rating (kochia [15]; [24]): 100
- Plant response rating, Kochia (kochia [15]; [25]): 40
- Plant response rating, Barnyardgrass (Flood) (barnyardgrass [16]): 0
- Plant response rating, Rice (Flood) (rice): 0
- Ragweed plant response rating (ragweed [17]; [24]): 60
- Plant response rating, Ragweed (ragweed [17]; [25]): 0
- Ryegrass, Italian plant response rating (ryegrass, Italian [18]; [24]): 100
- Plant response rating, Ryegrass, Italian (ryegrass, Italian [18]; [25]): 70
- Plant response rating, Ragweed (ragweed [19]; 500 g ai/ha, postemergence): 40
- Plant response rating, Ragweed (ragweed [19]; Postemergence, 125 g ai/ha): 40
- Corn plant response rating (corn [20]; [24]): 40
- Plant response rating, Corn (corn [20]; [25]): 20
- Wheat plant response rating (wheat [21]; [24]): 30
- Plant response rating, Wheat (wheat [21]; [25]): 10
- Plant response rating, Ryegrass, Italian (ryegrass, Italian [22]; 500 g ai/ha, postemergence): 70
- Plant response rating, Ryegrass, Italian (ryegrass, Italian [22]; Postemergence, 125 g ai/ha): 50
- Plant response rating, Sedge, Umbrella (Flood) (sedge, umbrella): 0
- Blackgrass plant response rating (blackgrass [23]; [24]): 80
- Plant response rating, Blackgrass (blackgrass [23]; [25]): 60
